In patent US20260007681A1, “INDOLE DERIVATIVES AS ESTROGEN RECEPTOR DEGRADERS” (REGENTS OF THE UNIVERSITY OF MICHIGAN, priority 2022, published 2026):

Target: ER (Homo sapiens (Human), UniProt P03372)
Assay: Western blot analysis (Compounds B1-B278)
Format: cell-based
Conditions: ER degradation by traditional Western blot; DC50 classes
Method: Western Blot Analysis. The cells that are treated with the compounds are lysed in Radioimmunoprecipitation Assay Protein Lysis and Extraction Buffer (e.g., 25 mmol/L Tris.HCl, pH 7.6, 150 mmol/L NaCl, 1% Nonidet P-40, 1% sodium deoxycholate, and 0.1% sodium dodecyl sulfate) containing proteinase inhibitor cocktail. Equal amounts of total protein are electrophoresed through 10% SDS-polyacrylamide gels after determination of protein concentration by BCA assay. The separated protein bands are transferred onto PVDF membranes and blotted against different antibodies. The blots are scanned, and the band intensities are quantified (e.g., by using GelQuant.NET software provided by biochemlabsolutions.com). The relative mean intensity of target proteins is expressed after normalization to the intensity of glyceraldehyde-3-phosphate dehydrogenase bands.
Western Blot Analysis. Western blot analysis was performed essentially as described previously. The cells treated with indicated compounds were lysed in Radioimmunoprecipitation Assay Protein Lysis and Extraction Buffer (25 mmol/L Tris.HCl, pH 7.6, 150 mmol/L NaCl, 1% Nonidet P-40, 1% sodium deoxycholate, and 0.1% sodium dodecyl sulfate) containing proteinase inhibitor cocktail (Roche Diagnostics, Mannheim, Germany). Equal amounts of total protein were electrophoresed through 10% SDS-polyacrylamide gels after determination of protein concentration by BCA assay (Fisher Scientific, Pittsburgh, PA). The separated protein bands were transferred onto PVDF membranes (GE Healthcare Life Sciences, Marlborough, MA) and blotted against different antibodies, as indicated. The blots were scanned, and the band intensities were quantified using GelQuant.NET software provided by biochemlabsolutions.com. The relative mean intensity of target proteins was expressed after normalization to the intensity of glyceraldehyde-3-phosphate dehydrogenase bands.

Chain of ER (P03372 whole entry): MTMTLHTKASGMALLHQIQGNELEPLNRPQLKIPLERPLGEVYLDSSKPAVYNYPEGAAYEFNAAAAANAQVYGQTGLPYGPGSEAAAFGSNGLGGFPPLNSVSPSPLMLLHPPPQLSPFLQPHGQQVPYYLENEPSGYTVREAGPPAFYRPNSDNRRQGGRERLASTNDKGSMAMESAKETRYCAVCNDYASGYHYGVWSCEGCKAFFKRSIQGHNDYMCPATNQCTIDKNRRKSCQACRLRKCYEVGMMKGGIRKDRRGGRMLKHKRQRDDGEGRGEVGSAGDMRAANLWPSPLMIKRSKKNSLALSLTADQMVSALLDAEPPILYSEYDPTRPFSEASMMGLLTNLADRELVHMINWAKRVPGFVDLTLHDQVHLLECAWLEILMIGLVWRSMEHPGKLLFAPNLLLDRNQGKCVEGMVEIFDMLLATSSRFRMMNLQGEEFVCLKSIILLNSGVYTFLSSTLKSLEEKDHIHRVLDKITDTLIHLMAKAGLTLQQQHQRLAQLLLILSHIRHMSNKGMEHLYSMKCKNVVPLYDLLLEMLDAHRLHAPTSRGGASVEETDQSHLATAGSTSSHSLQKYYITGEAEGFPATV

| Traditional Western Degradation Potency | Structure (SMILES) |
| --- | --- |
| A (“A”: <10 nM) | C[C@@H]1Cc2c([nH]c3ccccc23)[C@@H](c2c(F)cc(N3CC[C@@H](CN4CCC(C(=O)N5Cc6cc7c(cc6C5)C(=O)N(C5CCC(=O)NC5=O)C7)CC4)C3)cc2F)N1CC(F)F (stereo partly drawn) [Compound B196, 3-(6-(1-(((S)-1-(4-((1R,3R)-2-(2,2-difluoroethyl)-3-methyl-2,3,4,9-tetrahydro-1H-pyrido[3,4-b]indol-1-yl)-3,5-difluorophenyl)pyrrolidin-3-yl)methyl)piperidine-4-carbonyl)-1-oxo-3,5,6,7-tetrahydropyrrolo[3,4-f]isoindol-2(1H)-yl)piperidine-2,6-dione] |
| A (“A”: <10 nM) | C[C@@H]1Cc2c([nH]c3ccccc23)[C@@H](c2cnc(N3CCC4(CC3)CN(C(=O)CN3Cc5cc6c(cc5C3)C(=O)N(C3CCC(=O)NC3=O)C6=O)C4)nc2)N1CC(F)F (stereo partly drawn) [Compound B221, 6-(2-(7-(5-((1R,3R)-2-(2,2-difluoroethyl)-3-methyl-2,3,4,9-tetrahydro-1H-pyrido[3,4-b]indol-1-yl)pyrimidin-2-yl)-2,7-diazaspiro[3.5]nonan-2-yl)-2-oxoethyl)-2-(2,6-dioxopiperidin-3-yl)-6,7-dihydropyrrolo[3,4-f]isoindole-1,3(2H,5H)-dione] |
| A (“A”: <10 nM) | C[C@@H]1Cc2c([nH]c3ccccc23)[C@@H](c2c(F)cc(N3CCC4(CCN(C(=O)CN5Cc6cc7c(cc6C5)C(=O)N(C5CCC(=O)NC5=O)C7)C4)CC3)cc2F)N1CC(F)F (stereo partly drawn) [Compound B195, 3-(6-(2-(8-(4-((1R,3R)-2-(2,2-difluoroethyl)-3-methyl-2,3,4,9-tetrahydro-1H-pyrido[3,4-b]indol-1-yl)-3,5-difluorophenyl)-2,8-diazaspiro[4.5]decan-2-yl)-2-oxoethyl)-1-oxo-3,5,6,7-tetrahydropyrrolo[3,4-f]isoindol-2(1H)-yl)piperidine-2,6-dione] |
| B (“B”: 10-100 nM) | C[C@@H]1Cc2c([nH]c3ccccc23)[C@@H](c2ccc(N3CCC4(CCN(C(=O)CN5Cc6cc7c(cc6C5)C(=O)N(C5CCC(=O)NC5=O)C7=O)CC4)CC3)nc2)N1CC(F)F (stereo partly drawn) [Compound B229, 6-(2-(9-(5-((1R,3R)-2-(2,2-difluoroethyl)-3-methyl-2,3,4,9-tetrahydro-1H-pyrido[3,4-b]indol-1-yl)pyridin-2-yl)-3,9-diazaspiro[5.5]undecan-3-yl)-2-oxoethyl)-2-(2,6-dioxopiperidin-3-yl)-6,7-dihydropyrrolo[3,4-f]isoindole-1,3(2H,5H)-dione] |
| C (“C”: >100 nM) | C[C@@H]1Cc2c([nH]c3ccccc23)[C@@H](c2c(F)cc(C3CCN(C[C@H]4CC[C@H](N5Cc6cc7c(cc6C5)C(=O)N(C5CCC(=O)NC5=O)C7=O)CC4)CC3)cc2F)N1CC(F)F (stereo partly drawn) [Compound B95, 6-((1R,4r)-4-((4-(4-((1R,3R)-2-(2,2-difluoroethyl)-3-methyl-2,3,4,9-tetrahydro-1H-pyrido[3,4-b]indol-1-yl)-3,5-difluorophenyl)piperidin-1-yl)methyl)cyclohexyl)-2-(2,6-dioxopiperidin-3-yl)-6,7-dihydropyrrolo[3,4-f]isoindole-1,3(2H,5H)-dione] |
| B (“B”: 10-100 nM) | C[C@@H]1Cc2c([nH]c3ccccc23)[C@@H](c2c(F)cc(N3CCC4(CCN(C(=O)CN5Cc6cc7c(cc6C5)C(=O)N(C5CCC(=O)NC5=O)C7=O)CC4)CC3)cc2F)N1CC(F)(F)F (stereo partly drawn) [Compound B199, 6-(2-(9-(3,5-difluoro-4-((1R,3R)-3-methyl-2-(2,2,2-trifluoroethyl)-2,3,4,9-tetrahydro-1H-pyrido[3,4-b]indol-1-yl)phenyl)-3,9-diazaspiro[5.5]undecan-3-yl)-2-oxoethyl)-2-(2,6-dioxopiperidin-3-yl)-6,7-dihydropyrrolo[3,4-f]isoindole-1,3(2H,5H)-dione] |
| C (“C”: >100 nM) | COc1cc([C@H]2CC[C@H](C(=O)N3CCC(N4Cc5cc6c(cc5C4)C(=O)N(C4CCC(=O)NC4=O)C6=O)CC3)CC2)ncc1[C@@H]1c2[nH]c3ccccc3c2C[C@@H](C)N1CC(F)F (stereo partly drawn) [Compound B108, 6-(1-((1R,4r)-4-(5-((1R,3R)-2-(2,2-difluoroethyl)-3-methyl-2,3,4,9-tetrahydro-1H-pyrido[3,4-b]indol-1-yl)-4-methoxypyridin-2-yl)cyclohexane-1-carbonyl)piperidin-4-yl)-2-(2,6-dioxopiperidin-3-yl)-6,7-dihydropyrrolo[3,4-f]isoindole-1,3(2H,5H)-dione] |
| C (“C”: >100 nM) | C[C@@H]1Cc2c([nH]c3ccccc23)[C@H](c2c(F)cc(C(=O)N3CCC4(CCC(CN5Cc6cc7c(cc6C5)C(=O)N(C5CCC(=O)NC5=O)C7=O)CC4)CC3)cc2F)N1CC(F)F (stereo partly drawn) [Compound B100, 6-((3-(4-((1S,3R)-2-(2,2-difluoroethyl)-3-methyl-2,3,4,9-tetrahydro-1H-pyrido[3,4-b]indol-1-yl)-3,5-difluorobenzoyl)-3-azaspiro[5.5]undecan-9-yl)methyl)-2-(2,6-dioxopiperidin-3-yl)-6,7-dihydropyrrolo[3,4-f]isoindole-1,3(2H,5H)-dione] |
| A (“A”: <10 nM) | C[C@@H]1Cc2c([nH]c3ccccc23)[C@@H](c2c(F)cc(N3CCC(C(=O)N4CCC(N5Cc6cc7c(cc6C5)C(=O)N(C5CCC(=O)NC5=O)C7=O)CC4)CC3)cc2F)N1CC(C)(F)F (stereo partly drawn) [Compound B214, 6-(1-(1-(4-((1R,3R)-2-(2,2-difluoropropyl)-3-methyl-2,3,4,9-tetrahydro-1H-pyrido[3,4-b]indol-1-yl)-3,5-difluorophenyl)piperidine-4-carbonyl)piperidin-4-yl)-2-(2,6-dioxopiperidin-3-yl)-6,7-dihydropyrrolo[3,4-f]isoindole-1,3(2H,5H)-dione] |
| B (“B”: 10-100 nM) | C[C@@H]1Cc2c([nH]c3ccccc23)[C@@H](c2ccc(C3CCC(C(=O)N4CCC(N5Cc6cc7c(cc6C5)C(=O)N(C5CCC(=O)NC5=O)C7=O)CC4)CC3)cc2F)N1CC(F)F (stereo partly drawn) [Compound B233, 6-(1-(4-(4-((1R,3R)-2-(2,2-difluoroethyl)-3-methyl-2,3,4,9-tetrahydro-1H-pyrido[3,4-b]indol-1-yl)-3-fluorophenyl)cyclohexane-1-carbonyl)piperidin-4-yl)-2-(2,6-dioxopiperidin-3-yl)-6,7-dihydropyrrolo[3,4-f]isoindole-1,3(2H,5H)-dione] |
| B (“B”: 10-100 nM) | C[C@@H]1Cc2c([nH]c3ccccc23)[C@@H](c2ccc(N3CCC4(CCN(C(=O)CN5Cc6cc7c(cc6C5)C(=O)N(C5CCC(=O)NC5=O)C7=O)CC4)CC3)cc2)N1CC(F)F (stereo partly drawn) [Compound B227, 6-(2-(9-(4-((1R,3R)-2-(2,2-difluoroethyl)-3-methyl-2,3,4,9-tetrahydro-1H-pyrido[3,4-b]indol-1-yl)phenyl)-3,9-diazaspiro[5.5]undecan-3-yl)-2-oxoethyl)-2-(2,6-dioxopiperidin-3-yl)-6,7-dihydropyrrolo[3,4-f]isoindole-1,3(2H,5H)-dione] |
| A (“A”: <10 nM) | C[C@@H]1Cc2c([nH]c3ccccc23)[C@@H](c2c(F)cc(N3CC4(CCN(CC(=O)N5Cc6cc7c(cc6C5)C(=O)N(C5CCC(=O)NC5=O)C7)C4)C3)cc2F)N1CC(F)F (stereo partly drawn) [Compound B16, 3-(6-(2-(2-(4-((1R,3R)-2-(2,2-difluoroethyl)-3-methyl-2,3,4,9-tetrahydro-1H-pyrido[3,4-b]indol-1-yl)-3,5-difluorophenyl)-2,6-diazaspiro[3.4]octan-6-yl)acetyl)-1-oxo-3,5,6,7-tetrahydropyrrolo[3,4-f]isoindol-2(1H)-yl)piperidine-2,6-dione] |
| C (“C”: >100 nM) | C[C@@H]1Cc2c([nH]c3ccccc23)[C@@H](c2c(F)cc(C3CCN(C[C@H]4CC[C@H](N5Cc6cc7c(cc6C5)C(=O)N(C5CCC(=O)NC5=O)C7=O)CC4)CC3)cc2F)N1CC(F)F (stereo partly drawn) [Compound B96, 6-((1R,4r)-4-((4-(4-((1R,3R)-2-(2,2-difluoroethyl)-3-methyl-2,3,4,9-tetrahydro-1H-pyrido[3,4-b]indol-1-yl)-3,5-difluorophenyl)piperidin-1-yl)methyl)cyclohexyl)-2-(2,6-dioxopiperidin-3-yl)-6,7-dihydropyrrolo[3,4-f]isoindole-1,3(2H,5H)-dione] |
| B (“B”: 10-100 nM) | C[C@@H]1Cc2c([nH]c3ccccc23)[C@@H](c2c(F)cc(N3CCC(CN4CC(N5Cc6cc7c(cc6C5)C(=O)N(C5CCC(=O)NC5=O)C7=O)C4)CC3)cc2F)N1CC(F)F (stereo partly drawn) [Compound B63, 6-(1-((1-(4-((1R,3R)-2-(2,2-difluoroethyl)-3-methyl-2,3,4,9-tetrahydro-1H-pyrido[3,4-b]indol-1-yl)-3,5-difluorophenyl)piperidin-4-yl)methyl)azetidin-3-yl)-2-(2,6-dioxopiperidin-3-yl)-6,7-dihydropyrrolo[3,4-f]isoindole-1,3(2H,5H)-dione] |
